Source: patent US20250213527A1, “FORMULATIONS OF PSILOCYBIN ANALOGS AND METHODS OF USE” (priority 2021, published 2025)
“Also recorded” adds a separate entry of the source. Structures can show the parent of a compound that is named as a salt. Marks after values point to notes of the source that are not given here.

What was measured:
[1] = Maturation in 12 different solvents with thermal cycling, XRPD; assay type: physicochemical; conditions: slurries cycled between room temperature and 50 °C (4 hours each) for 3 days
Experimental: The resulting slurries were subjected to maturation with thermal cycling between room temperature and 50° C. (4 hours at each condition) for 3 days. Solids were then analysed by XRPD.

[2] = Solubility in FaSSGF (Fasted State Simulated Gastric Fluid) at 37 °C; assay type: physicochemical; conditions: free base component, average n=2
Experimental: Preparation of solutions: Solubility tests in FaSSGF were carried out at 37° C. and in water at room temperature for 2 hour and 6 hour timepoints. 50 mg solid was added to 0.5 mL media and incubated on an orbital shaker for 6 hours. (For free base in water 20 mg samples were used). Slurry/solution was sampled at 2 and 6 hours and aliquots were filtered through 0.45 micron PTFE filters. The filtrate was diluted 500 fold with the appropriate (same) media and injected on to UPLC.
(For free base in water ≥40 mg·mL^−1). […] Results were calculated based on a standard calibration curve of appropriate free base. Values quoted are for the free base component of each salt and are average of two (n=2) determinations.

[3] = Psilocin stability comparison between sodium citrate and phosphate buffer, 40 °C; assay type: physicochemical; conditions: 0.1 M, 24 h
Experimental: The effect of buffer type and pH on the stability of psilocin was assessed.
(§1) Preparation of 0.1 M sodium citrate buffer (pH 6.01): 2.427 g of sodium citrate dihydrate and 0.336 g of citric acid were dissolved in 80 ml of DI water. The pH was adjusted to 6.0 using a 1 M NaOH solution. The final volume was adjusted to 100 ml.
Preparation of 0.1 M phosphate buffer (pH 6.0 and pH 7.5): Monosodium phosphate (0.339 g, 0.002 moles) and disodium phosphate (2.021 g, 0.014 moles) were dissolved in 80 ml water and the pH was adjusted as necessary using sodium hydroxide or phosphoric acid. The volume was adjusted to 100 ml using water.
Test solutions: Psilocin (1 mg/ml) was mixed with (i) 0.1 M sodium citrate buffer (pH 6.01), (ii) 0.1 M phosphate buffer (pH 6.0), and (iii) 0.1 M phosphate buffer (pH 7.5) in a 1:1 v/v ratio.

[4] = Plasma pharmacokinetics and bioavailability in rats, oral gavage and intravenous (bolus); conditions: for Tmax: rat plasma, label = analyte, IAD = immediately after dosing
[5] = Psilocin stability in 0.1 M sodium citrate buffer at 4, 23 and 40 °C; assay type: physicochemical
Experimental: as §1

[6] = Psilocin stability with cyclodextrin complexes, 40 °C; conditions: 1% w/w cyclodextrin, up to 24 h
[7] = Psilocin stability in dilute citric acid solution at 4, 23 and 40 °C
[8] = Long-term (up to 25 days) psilocin stability in citric acid solution and sodium citrate buffer; assay type: physicochemical; conditions: 0.1 M
Experimental: The long-term stability (up to 25 days) of psilocin in a citric acid solution (0.1 M, pH 1.60) and a sodium citrate buffer (0.1 M, pH 6.01) at 4C and 23° C. was assessed.
as §1
Test solutions: Psilocin (1 mg/ml), was mixed with (i) sodium citrate buffer (0.1 M, pH 6.01) and (ii) citric acid solution (0.1 M, pH 1.60) in 1:1 v/v. The samples were stored at 4° C. and 23° C., and aliquots were sampled at designated timepoints (days 0, 7, 17, and 25).

[9] = Psilocin stability in 0.1 M acid solutions with or without metal ions, 40 °C; assay type: physicochemical; conditions: up to 24 h
Description: Ascorbic acid (AsA), acetic acid (AcA), tartaric acid (TA), fumaric acid (FA), citric acid (CA), malic acid (MA), benzenesulfonic acid (BSA), stearic acid (SA), sodium citrate dihydrate, monosodium phosphate hydrate, disodium phosphate were purchased from Sigma Aldrich. Aluminum (III) chloride (AlCl3) and iron (III) chloride (FeCl3) were purchased from Sigma Aldrich. Antioxidants, i.e., ethylenediaminetetraacetic acid (EDTA), ascorbic acid (AsA), L-cysteine (Cys), sodium metabisulfite (NamBiSO3) and propyl gallate (PG) were purchased from Sigma Aldrich. Hydroxypropyl-β-cyclodextrin (CAVASOL® W7 HP, CAVITRON® W7 HP7) and methyl-β-cyclodextrin (CAVASOL® W7 M) were provided by DuPont.
The following chromatographic conditions were used:
Diluent. The diluent used in the below studies was prepared as follows: 100 mL of acetonitrile (ACN) was mixed with 800 mL of water and 100 mL of 1.0 M citric acid and mixed well to prepare 1 L of diluent.
The stability of psilocin in 0.1 M solutions of various acids was tested.
Test solutions: To prepare the test solutions, 0.1 M solutions of AsA, AcA, TA, FA, CA, MA, BSA, and SA were prepared in DI water.

[10] = Psilocin stability with antioxidants against metal induced degradation, 40 °C; conditions: 20 μM antioxidant, up to 24 h
[11] = Brain tissue concentrations in rats after intravenous dosing
[12] = Observation of isolated freeze dried solid; assay type: physicochemical; conditions: freeze dried citrate salt
Experimental: This gave an oil. Additional water was added until a solution was obtained. […] The obtained citrate salt was amorphous as shown by X-ray powder diffraction (XRPD) pattern in FIG. 37A.

[13] = Group 3, IV, psilocybin dosed 2.8 mg/kg

CN(C)CCc1c[nH]c2cccc(O)c12 [Compound I-7b, tartrate salt of 3-(2-(dimethylamino)ethyl)-1H-indol-4-ol]
crystalline form by XRPD after maturation in 12 different solvents [1]: retained their initial crystalline form

CN(C)CCc1c[nH]c2cccc(O)c12 [Compound I-7j, Benzoate Salt of 3-(2-(dimethylamino)ethyl)-1H-indol-4-ol]
crystalline form by XRPD after maturation in 12 different solvents [1]: retained their initial crystalline form; also recorded: the same pattern 1 by XRPD was observed | Solubility FaSSGF 6 hours [2]: 9.79 mg/mL

CN(C)CCc1c[nH]c2cccc(O)c12 [Compound I-7a, benzenesulfonate salt of 3-(2-(dimethylamino)ethyl)-1H-indol-4-ol]
crystalline form by XRPD after maturation in 12 different solvents [1]: retained their initial crystalline form (pattern 1)

CN(C)CCc1c[nH]c2cccc(O)c12 [Compound I-7c, Hemi-Fumarate Salt of 3-(2-(dimethylamino)ethyl)-1H-indol-4-ol]
crystalline form by XRPD after maturation in 12 different solvents [1]: complex polymorphism with multiple crystalline patterns obtained | Solubility FaSSGF 6 hours [2]: ≥ 52.25* mg/mL

[2H]C([2H])([2H])N(C([2H])([2H])[2H])C([2H])([2H])C([2H])([2H])c1c[nH]c2cccc(O)c12 [Compound I-3j, Benzoate Salt of 3-(2-(bis(methyl-d3)amino)ethyl-1,1,2,2-d4)-1H-indol-4-ol]
crystalline form by XRPD after maturation in 12 different solvents [1]: retained their initial crystalline form (pattern 1) | Solubility FaSSGF 6 hours [2]: 12.79 mg/mL

CN(C)CCc1c[nH]c2cccc(O)c12 [Compound I-7, 3-(2-(dimethylamino)ethyl)-1H-indol-4-ol]
stability in phosphate buffer pH 6.0 versus pH 7.5 [3]: better stability than at pH 7.5 | Tmax ([4]; Group 1, IV, psilocin + psilocin-d10 1 + 1 mg/kg): IAD | Tmax [4, 13]: IAD | onset, duration and variability of plasma exposure versus oral psilocybin ([4]; rats, oral): a faster onset, a shorter duration of effect, and less variability in drug exposure than oral psilocybin | effect of metal salts (Fe3+ and Al3+) in citrate buffer ([5]; 0.1 M sodium citrate buffer pH 6.01): no detrimental effects | solution stability in non-citrate buffered solutions with Fe3+ and Al3+ ([5]; 4, 23 and 40 °C): significant psilocin degradation | solution stability without sodium citrate buffer ([5]; 4, 23 and 40 °C): nearly all psilocin being degraded by the 18 hour time point | degradation of psilocin in 0.1 M sodium citrate buffer ([5]; 40 °C, up to 24 h): 10-15% | solution stability in 0.1 M sodium citrate buffer ([5]; pH 6.01, 4 °C and room temperature, up to 24 h): greatly stabilized psilocin | stability with cyclodextrins against high temperature or metal induced degradation [6]: cyclodextrins did not impart stability | solution stability without citric acid ([7]; 4, 23 and 40 °C): nearly all psilocin being degraded by the 18 hour time point | solution stability without citric acid in presence of Fe3+ and Al3+ ([7]; 4, 23 and 40 °C): significant psilocin degradation | solution stability with small quantities of citric acid (pH 3.2) ([7]; 4 °C and room temperature (23 °C), up to 24 h): greatly enhanced the stability of psilocin | psilocin stabilization (% psilocin remaining) with small quantities of citric acid ([7]; 40 °C, 24 hour time point): 30% | long-term stability in citric acid solution ([8]; pH 1.60, 4 °C and 23 °C): only minimal degradation | long-term stability in sodium citrate buffer, cold storage ([8]; pH 6.01, 4 °C): remained stable for up to 17 days | long-term stability in sodium citrate buffer, room temperature ([8]; pH 6.01, 23 °C): degradation of psilocin began within a week | solution stability in 0.1 M acid solutions (solution-phase salts), with or without metal salts ([9]; all tested acids): excellent stability | solution stability of psilocin without acid [9]: nearly all psilocin being degraded within 24 hours | solution stability without acid in presence of Fe3+ and Al3+ metal ions [9]: significant psilocin degradation | stability against metal salts with antioxidants (EDTA, ascorbic acid, L-cysteine, sodium metabisulfite, propyl gallate) [10]: none of the antioxidants tested were able to provide stability

CN(C)CCc1c[nH]c2cccc(OP(=O)(O)O)c12 [psilocybin, Psilocybin]
bioavailability ([4]; male, Sprague Dawley, rat, plasma, po, 14 mg/kg): < 0.1% | Tmax [4, 13]: IAD | brain concentrations of psilocybin versus plasma [11]: brain concentrations of psilocybin are low

CN(C)CCc1c[nH]c2cccc(O)c12 [Compound I-7e, Citrate Salt of 3-(2-(dimethylamino)ethyl)-1H-indol-4-ol]
behaviour of isolated amorphous solid [12]: hygroscopic and rapidly became sticky
